The source of these data is patent publication US7964720B2, “Method of making porphyrins” (North Carolina State University, priority 2007, dated 2011).

On data set [1], the source says:
4. Solubility. […] We compared the solubility of 1, Pd-1, Zn-1 and Mg-1 in common organic solvents (CH2Cl2, THF, MeOH, ethyl acetate, toluene).

For data set [2] the following is noted: background statement; cited from earlier work.
Data set [3] can be described thus: Stability of the magnesium chelate in solution and on silica column chromatography. Format: physicochemical. As to the method:
Thus, refluxing a mixture of 2 (100 mM) in toluene containing DBU (10 equiv vs. 2) and MgBr2 (3 equiv) in the presence of air afforded Mg(II)porphine (Mg-1) in 41% yield. Note that no quinone oxidant is required. Mg(II)porphine was purified by filtration through an alumina column. No free base porphine was detected in the reaction mixture. […] Neither starting material nor macrocyclic byproducts were detected. Therefore we performed the purification of Mg-1 without column chromatography. The crude reaction mixture was concentrated. The resulting oily material was treated with THF, filtered (to remove the polymeric material and inorganic salt), and filtrate was concentrated. Subsequent washing with water (to remove an excess of DBU) and crystallization from ethanol/water afforded Mg-1 in satisfactory purity. […] Note that Mg(II)porphine (Mg-1) was previously prepared by metalation of 1.^2

For `C1=Cc2cc3ccc(cc4nc(cc5ccc(cc1n2)[nH]5)C=C4)[nH]3` [compound 1, Porphine], in data set [1], the “general trend in solubility” value is given as “Pd-1<1<Zn-1<<Mg-1” and the “solubility in common organic solvents” value is on record as “poor solubility”. The “solubility of the free base” value in data set [2] is given as “extremely low solubility”.

As to Mg(II)porphine [Mg-1], in data set [3] (in solution), the stability in solution result is listed as “stable in solution”. In addition, in data set [3] (silica column chromatography), the “behaviour upon silica column chromatography” value is “partial decomplexation”. Besides, in data set [1], the “general trend in solubility” value is “Pd-1<1<Zn-1<<Mg-1” and the “solubility in common organic solvents” value was “sufficiently high”.

As for Pd(II)porphine [Pd-1], the “general trend in solubility” value in data set [1] is on record as “Pd-1<1<Zn-1<<Mg-1”.

For the compound Zn(II)porphine [Zn-1], the “general trend in solubility” value in data set [1] was “Pd-1<1<Zn-1<<Mg-1”.
